According to ChEMBL document CHEMBL3885881, “DrugMatrix”:

Species: Rattus norvegicus
Test: DrugMatrix - Regimen: Daily Repeat
Assay type: toxicity, organism-based, Sprague-Dawley
Set-up: regimen Daily Repeat, gender Male, age 6-8 weeks
Conditions: in vivo, iv, vehicle 100 % SALINE; for ABSOLUTE BASOPHIL / ABSOLUTE EOSINOPHIL / ABSOLUTE LYMPHOCYTE / ABSOLUTE MONOCYTE / ABSOLUTE SEGMENTED NEUTROPHIL / BASOPHIL / EOSINOPHIL / ERYTHROCYTE COUNT / HEMATOCRIT / HEMOGLOBIN / LEUKOCYTE COUNT / LYMPHOCYTE / MEAN CORPUSCULAR HEMOGLOBIN / MEAN CORPUSCULAR HEMOGLOBIN CONCENTRATION / MEAN CORPUSCULAR VOLUME / MONOCYTE / NEUTROPHIL / NUCLEATED RED BLOOD CELLS / PLATELET COUNT: tissue Blood; for ALANINE AMINOTRANSFERASE / ALBUMIN / ALKALINE PHOSPHATASE / ASPARTATE AMINOTRANSFERASE / BLOOD UREA NITROGEN / CARBON DIOXIDE / CHLORIDE / CHOLESTEROL / CREATINE PHOSPHOKINASE / CREATININE / GLUCOSE / LACTATE DEHYDROGENASE / LIPASE / PHOSPHORUS / POTASSIUM / SODIUM / TOTAL BILIRUBIN / TOTAL PROTEIN / URIC ACID: tissue Plasma
[1] = 2 mg/kg, 72 h, dose level High, time 3 day
[2] = 2 mg/kg, 120 h, dose level High, time 5 day
[3] = […], 72 h, dose 0.21 mg/Kg, dose level Low, time 3 day
[4] = […], 120 h, dose 0.21 mg/Kg, dose level Low, time 5 day

O=C1c2c(O)ccc(O)c2C(=O)c2c(NCCNCCO)ccc(NCCNCCO)c21 [MITOXANTRONE]
ABSOLUTE BASOPHIL [1]: 0 CELLS/uL
ABSOLUTE EOSINOPHIL [1]: 0 CELLS/uL
ABSOLUTE LYMPHOCYTE [1]: 1529.67 CELLS/uL
ABSOLUTE MONOCYTE [1]: 0 CELLS/uL
ABSOLUTE SEGMENTED NEUTROPHIL [1]: 137 CELLS/uL
BASOPHIL [1]: 0%
EOSINOPHIL [1]: 0%
ERYTHROCYTE COUNT [1]: 5.38 x10E6/uL
HEMATOCRIT [1]: 34.37%
HEMOGLOBIN [1]: 12.83 G/DL
LEUKOCYTE COUNT [1]: 1.67 x10E3/uL
LYMPHOCYTE [1]: 91.67%
MEAN CORPUSCULAR HEMOGLOBIN [1]: 23.9 pg
MEAN CORPUSCULAR HEMOGLOBIN CONCENTRATION [1]: 37.37 G/DL
MEAN CORPUSCULAR VOLUME [1]: 63.87 fL
MONOCYTE [1]: 0%
NEUTROPHIL [1]: 8.33%
NUCLEATED RED BLOOD CELLS [1]: 0 /100WBC
PLATELET COUNT [1]: 1484 x10E3/uL
ALANINE AMINOTRANSFERASE [1]: 42.67 u/L
ALBUMIN [1]: 4.43 G/DL
ALKALINE PHOSPHATASE [1]: 444 u/L
ASPARTATE AMINOTRANSFERASE [1]: 64 u/L
BLOOD UREA NITROGEN [1]: 15.67 mg/dL
CARBON DIOXIDE [1]: 23 mmol/L
CHLORIDE [1]: 104.67 MEQ/L
CHOLESTEROL [1]: 79.33 mg/dL
CREATINE PHOSPHOKINASE [1]: 220.67 u/L
CREATININE [1]: 0.17 mg/dL
GLUCOSE [1]: 180.33 mg/dL
LACTATE DEHYDROGENASE [1]: 145 u/L
LIPASE [1]: 10 u/L
PHOSPHORUS [1]: 12.2 mg/dL
POTASSIUM [1]: 5.98 MEQ/L
SODIUM [1]: 146.2 MEQ/L
TOTAL BILIRUBIN [1]: 0.13 mg/dL
TOTAL PROTEIN [1]: 6.1 G/DL
URIC ACID [1]: 2.67 mg/dL
ABSOLUTE BASOPHIL [2]: 0 CELLS/uL
ABSOLUTE EOSINOPHIL [2]: 0 CELLS/uL
ABSOLUTE LYMPHOCYTE [2]: 1225 CELLS/uL
ABSOLUTE MONOCYTE [2]: 0 CELLS/uL
ABSOLUTE SEGMENTED NEUTROPHIL [2]: 8.33 CELLS/uL
BASOPHIL [2]: 0%
EOSINOPHIL [2]: 0%
ERYTHROCYTE COUNT [2]: 5.82 x10E6/uL
HEMATOCRIT [2]: 35.23%
HEMOGLOBIN [2]: 13.37 G/DL
LEUKOCYTE COUNT [2]: 1.23 x10E3/uL
LYMPHOCYTE [2]: 99.33%
MEAN CORPUSCULAR HEMOGLOBIN [2]: 23.07 pg
MEAN CORPUSCULAR HEMOGLOBIN CONCENTRATION [2]: 37.97 G/DL
MEAN CORPUSCULAR VOLUME [2]: 60.73 fL
MONOCYTE [2]: 0%
NEUTROPHIL [2]: 0.67%
NUCLEATED RED BLOOD CELLS [2]: 0 /100WBC
PLATELET COUNT [2]: 946 x10E3/uL
ALANINE AMINOTRANSFERASE [2]: 32.33 u/L
ALBUMIN [2]: 3.37 G/DL
ALKALINE PHOSPHATASE [2]: 255.33 u/L
ASPARTATE AMINOTRANSFERASE [2]: 47.67 u/L
BLOOD UREA NITROGEN [2]: 15.67 mg/dL
CARBON DIOXIDE [2]: 29.33 mmol/L
CHLORIDE [2]: 105 MEQ/L
CHOLESTEROL [2]: 107 mg/dL
CREATINE PHOSPHOKINASE [2]: 271.67 u/L
CREATININE [2]: 0.12 mg/dL
GLUCOSE [2]: 142.33 mg/dL
LACTATE DEHYDROGENASE [2]: 141.33 u/L
LIPASE [2]: 9.67 u/L
PHOSPHORUS [2]: 11.97 mg/dL
POTASSIUM [2]: 6.74 MEQ/L
SODIUM [2]: 146.57 MEQ/L
TOTAL BILIRUBIN [2]: 0.1 mg/dL
TOTAL PROTEIN [2]: 5.2 G/DL
URIC ACID [2]: 1.33 mg/dL
ABSOLUTE BASOPHIL [3]: 0 CELLS/uL
ABSOLUTE EOSINOPHIL [3]: 34.67 CELLS/uL
ABSOLUTE LYMPHOCYTE [3]: 7414.67 CELLS/uL
ABSOLUTE MONOCYTE [3]: 92.67 CELLS/uL
ABSOLUTE SEGMENTED NEUTROPHIL [3]: 224.67 CELLS/uL
BASOPHIL [3]: 0%
EOSINOPHIL [3]: 0.33%
ERYTHROCYTE COUNT [3]: 5.52 x10E6/uL
HEMATOCRIT [3]: 34.13%
HEMOGLOBIN [3]: 12.87 G/DL
LEUKOCYTE COUNT [3]: 7.77 x10E3/uL
LYMPHOCYTE [3]: 96%
MEAN CORPUSCULAR HEMOGLOBIN [3]: 23.37 pg
MEAN CORPUSCULAR HEMOGLOBIN CONCENTRATION [3]: 37.73 G/DL
MEAN CORPUSCULAR VOLUME [3]: 61.87 fL
MONOCYTE [3]: 1%
NEUTROPHIL [3]: 2.67%
NUCLEATED RED BLOOD CELLS [3]: 0 /100WBC
PLATELET COUNT [3]: 1537 x10E3/uL
ALANINE AMINOTRANSFERASE [3]: 46 u/L
ALBUMIN [3]: 4.5 G/DL
ALKALINE PHOSPHATASE [3]: 370.67 u/L
ASPARTATE AMINOTRANSFERASE [3]: 75 u/L
BLOOD UREA NITROGEN [3]: 14.33 mg/dL
CARBON DIOXIDE [3]: 24 mmol/L
CHLORIDE [3]: 103.33 MEQ/L
CHOLESTEROL [3]: 77.33 mg/dL
CREATINE PHOSPHOKINASE [3]: 192 u/L
CREATININE [3]: 0.24 mg/dL
GLUCOSE [3]: 163 mg/dL
LACTATE DEHYDROGENASE [3]: 207.67 u/L
LIPASE [3]: 9.67 u/L
PHOSPHORUS [3]: 13.57 mg/dL
POTASSIUM [3]: 7.01 MEQ/L
SODIUM [3]: 145.1 MEQ/L
TOTAL BILIRUBIN [3]: 0.23 mg/dL
TOTAL PROTEIN [3]: 6.23 G/DL
URIC ACID [3]: 2.6 mg/dL
ABSOLUTE BASOPHIL [4]: 0 CELLS/uL
ABSOLUTE EOSINOPHIL [4]: 26.67 CELLS/uL
ABSOLUTE LYMPHOCYTE [4]: 5180 CELLS/uL
ABSOLUTE MONOCYTE [4]: 42.67 CELLS/uL
ABSOLUTE SEGMENTED NEUTROPHIL [4]: 217.33 CELLS/uL
BASOPHIL [4]: 0%
EOSINOPHIL [4]: 0.67%
ERYTHROCYTE COUNT [4]: 5.12 x10E6/uL
HEMATOCRIT [4]: 32.83%
HEMOGLOBIN [4]: 12.5 G/DL
LEUKOCYTE COUNT [4]: 5.47 x10E3/uL
LYMPHOCYTE [4]: 94.33%
MEAN CORPUSCULAR HEMOGLOBIN [4]: 24.47 pg
MEAN CORPUSCULAR HEMOGLOBIN CONCENTRATION [4]: 38.1 G/DL
MEAN CORPUSCULAR VOLUME [4]: 64.27 fL
MONOCYTE [4]: 1%
NEUTROPHIL [4]: 4%
NUCLEATED RED BLOOD CELLS [4]: 0.33 /100WBC
PLATELET COUNT [4]: 1671.33 x10E3/uL
ALANINE AMINOTRANSFERASE [4]: 42.33 u/L
ALBUMIN [4]: 4.27 G/DL
ALKALINE PHOSPHATASE [4]: 328.67 u/L
ASPARTATE AMINOTRANSFERASE [4]: 67 u/L
BLOOD UREA NITROGEN [4]: 15 mg/dL
CARBON DIOXIDE [4]: 24.33 mmol/L
CHLORIDE [4]: 107.67 MEQ/L
CHOLESTEROL [4]: 77.67 mg/dL
CREATINE PHOSPHOKINASE [4]: 193.33 u/L
CREATININE [4]: 0.25 mg/dL
GLUCOSE [4]: 163.33 mg/dL
LACTATE DEHYDROGENASE [4]: 101 u/L
LIPASE [4]: 12 u/L
PHOSPHORUS [4]: 11.77 mg/dL
POTASSIUM [4]: 6.53 MEQ/L
SODIUM [4]: 146.7 MEQ/L
TOTAL BILIRUBIN [4]: 0.2 mg/dL
TOTAL PROTEIN [4]: 5.87 G/DL
URIC ACID [4]: 1.8 mg/dL
